The target in data set [1] is T1, Toll-like receptor 7 (Mus musculus) (UniProt P58681).
T1 sequence (whole entry): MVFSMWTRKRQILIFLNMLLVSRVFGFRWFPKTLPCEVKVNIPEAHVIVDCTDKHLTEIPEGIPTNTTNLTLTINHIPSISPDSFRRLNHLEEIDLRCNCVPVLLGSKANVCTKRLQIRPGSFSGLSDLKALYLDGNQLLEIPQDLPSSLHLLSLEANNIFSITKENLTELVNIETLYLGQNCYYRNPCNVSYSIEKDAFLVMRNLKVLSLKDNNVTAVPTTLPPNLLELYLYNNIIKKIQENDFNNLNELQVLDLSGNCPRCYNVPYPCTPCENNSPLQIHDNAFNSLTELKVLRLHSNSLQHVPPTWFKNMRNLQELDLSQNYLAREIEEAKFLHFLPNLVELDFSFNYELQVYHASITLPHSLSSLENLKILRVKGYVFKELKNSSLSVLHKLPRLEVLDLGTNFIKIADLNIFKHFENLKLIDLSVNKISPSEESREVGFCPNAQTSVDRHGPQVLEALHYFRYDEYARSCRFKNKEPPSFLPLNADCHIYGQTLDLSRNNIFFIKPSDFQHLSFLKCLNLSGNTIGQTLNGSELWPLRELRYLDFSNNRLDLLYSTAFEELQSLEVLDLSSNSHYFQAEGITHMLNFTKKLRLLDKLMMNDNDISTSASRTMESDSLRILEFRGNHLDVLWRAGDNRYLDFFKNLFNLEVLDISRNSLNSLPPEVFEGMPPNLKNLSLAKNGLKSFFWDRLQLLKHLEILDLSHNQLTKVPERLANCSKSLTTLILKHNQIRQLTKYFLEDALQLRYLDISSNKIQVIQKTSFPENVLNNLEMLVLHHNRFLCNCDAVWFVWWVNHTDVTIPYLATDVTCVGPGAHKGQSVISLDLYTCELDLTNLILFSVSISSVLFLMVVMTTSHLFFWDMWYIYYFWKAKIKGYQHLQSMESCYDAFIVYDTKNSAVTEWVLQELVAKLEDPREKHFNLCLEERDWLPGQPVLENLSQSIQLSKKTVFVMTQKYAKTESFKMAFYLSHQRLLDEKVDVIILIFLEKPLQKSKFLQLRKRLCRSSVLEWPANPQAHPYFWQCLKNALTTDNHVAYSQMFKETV
Briefly: (§1) Agonist activity at mouse TLR7.

Data set [2] deals with T2, Cytochrome P450 3A4 (Homo sapiens, UniProt P08684). Put plainly: Inhibition of CYP3A4 (unknown origin) using BFC as substrate preincubated with compound followed by substrate addition at 5 mins. It is filed as ADME.
The target in data set [3] is T2, Cytochrome P450 3A4. Put plainly: Inhibition of CYP3A4 (unknown origin) using BFC as substrate. Format: ADME.
Data set [4] addresses Cytochrome P450 2D6 (Homo sapiens, UniProt P10635). Put plainly: Inhibition of CYP2D6 (unknown origin). Format: ADME.
Data set [5] deals with Cytochrome P450 2C19 (Homo sapiens, UniProt P33261). Briefly: Inhibition of CYP2C19 (unknown origin). It is filed as ADME.
For data set [6], the target named is Cytochrome P450 2C9 (Homo sapiens, UniProt P11712). Put plainly: Inhibition of CYP2C9 (unknown origin). Format: ADME.
Data set [7] in a line: Cytotoxicity against PHA-activated T-cells (unknown origin) assessed as inhibition of IL-2 induced cell proliferation measured after 72 hrs by MTS assay. Format: toxicity, cell-based. A general note: Formazan colour is commonly taken as a measure of viable cells.
In data set [8] the target is Voltage-gated inwardly rectifying potassium channel KCNH2 (Homo sapiens, UniProt Q12809). Briefly: Inhibition of hERG. To be noted: for inhibition (INH): human. Format: toxicity.
The nature of data set [9]: Metabolic stability in mouse liver microsomes assessed as compound remaining at 0.5 uM incubated for 10 mins in presence of NADPH by UV absorbance based assay. It is filed as ADME, Microsome. To be noted: read-out: Stability. A general note: Microsomes from liver hold many membrane-bound enzymes, among them those of drug oxidation.
For data set [10], the target named is T3, Cytochrome P450 1A2 (Homo sapiens, UniProt P05177).
T3 sequence (P05177 whole entry): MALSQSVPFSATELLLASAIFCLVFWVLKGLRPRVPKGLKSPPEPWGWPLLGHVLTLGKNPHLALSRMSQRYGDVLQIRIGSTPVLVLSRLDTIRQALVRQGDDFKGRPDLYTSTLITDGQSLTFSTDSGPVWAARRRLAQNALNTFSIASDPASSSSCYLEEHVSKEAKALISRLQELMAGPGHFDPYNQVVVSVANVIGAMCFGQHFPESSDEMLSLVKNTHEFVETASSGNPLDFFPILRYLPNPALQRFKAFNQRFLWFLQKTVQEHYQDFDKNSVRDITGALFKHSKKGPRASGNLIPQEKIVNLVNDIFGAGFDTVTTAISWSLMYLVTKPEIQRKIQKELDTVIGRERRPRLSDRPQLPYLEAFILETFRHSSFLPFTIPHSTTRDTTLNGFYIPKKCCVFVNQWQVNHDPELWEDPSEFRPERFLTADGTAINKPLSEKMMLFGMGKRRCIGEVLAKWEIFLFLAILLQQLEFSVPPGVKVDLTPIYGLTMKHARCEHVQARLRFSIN
Briefly: Inhibition of CYP1A2 (unknown origin). Format: ADME.

A short description of data set [11]: Metabolic stability in human liver microsomes assessed as compound remaining at 0.5 uM incubated for 10 mins in presence of NADPH by UV absorbance based assay. It is filed as ADME, Microsome. To be noted: read-out: Stability.
Data set [12] deals with T4, Cytochrome P450 2C8 (Homo sapiens, UniProt P10632).
T4 sequence (P10632 whole entry): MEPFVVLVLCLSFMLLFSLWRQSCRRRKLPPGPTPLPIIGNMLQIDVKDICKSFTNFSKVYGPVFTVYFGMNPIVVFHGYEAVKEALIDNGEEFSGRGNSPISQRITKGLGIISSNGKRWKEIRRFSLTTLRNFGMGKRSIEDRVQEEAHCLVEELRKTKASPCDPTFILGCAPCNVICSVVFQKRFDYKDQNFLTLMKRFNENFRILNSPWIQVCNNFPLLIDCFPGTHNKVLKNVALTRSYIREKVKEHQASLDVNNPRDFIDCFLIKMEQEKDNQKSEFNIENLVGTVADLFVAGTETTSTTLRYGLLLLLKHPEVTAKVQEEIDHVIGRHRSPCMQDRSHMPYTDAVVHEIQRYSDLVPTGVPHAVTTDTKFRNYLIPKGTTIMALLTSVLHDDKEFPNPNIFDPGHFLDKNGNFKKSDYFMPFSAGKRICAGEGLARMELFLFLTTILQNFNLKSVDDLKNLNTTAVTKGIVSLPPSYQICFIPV
Briefly: Inhibition of CYP2C8 (unknown origin). Format: ADME.

In data set [13] the target is T2, Cytochrome P450 3A4. Briefly: Inhibition of CYP3A4 (unknown origin) using BFC as substrate preincubated with compound followed by substrate addition at 30 mins. Format: ADME.
For data set [14], the target named is T5, Toll-like receptor 7 (Mus musculus, UniProt P58681).
T5 sequence (P58681 whole entry): T1 sequence (whole entry)
Described as §1.

Data set [15] concerns the target T6, Toll-like receptor 7 (Homo sapiens, UniProt Q9NYK1).
T6 sequence (Q9NYK1 whole entry): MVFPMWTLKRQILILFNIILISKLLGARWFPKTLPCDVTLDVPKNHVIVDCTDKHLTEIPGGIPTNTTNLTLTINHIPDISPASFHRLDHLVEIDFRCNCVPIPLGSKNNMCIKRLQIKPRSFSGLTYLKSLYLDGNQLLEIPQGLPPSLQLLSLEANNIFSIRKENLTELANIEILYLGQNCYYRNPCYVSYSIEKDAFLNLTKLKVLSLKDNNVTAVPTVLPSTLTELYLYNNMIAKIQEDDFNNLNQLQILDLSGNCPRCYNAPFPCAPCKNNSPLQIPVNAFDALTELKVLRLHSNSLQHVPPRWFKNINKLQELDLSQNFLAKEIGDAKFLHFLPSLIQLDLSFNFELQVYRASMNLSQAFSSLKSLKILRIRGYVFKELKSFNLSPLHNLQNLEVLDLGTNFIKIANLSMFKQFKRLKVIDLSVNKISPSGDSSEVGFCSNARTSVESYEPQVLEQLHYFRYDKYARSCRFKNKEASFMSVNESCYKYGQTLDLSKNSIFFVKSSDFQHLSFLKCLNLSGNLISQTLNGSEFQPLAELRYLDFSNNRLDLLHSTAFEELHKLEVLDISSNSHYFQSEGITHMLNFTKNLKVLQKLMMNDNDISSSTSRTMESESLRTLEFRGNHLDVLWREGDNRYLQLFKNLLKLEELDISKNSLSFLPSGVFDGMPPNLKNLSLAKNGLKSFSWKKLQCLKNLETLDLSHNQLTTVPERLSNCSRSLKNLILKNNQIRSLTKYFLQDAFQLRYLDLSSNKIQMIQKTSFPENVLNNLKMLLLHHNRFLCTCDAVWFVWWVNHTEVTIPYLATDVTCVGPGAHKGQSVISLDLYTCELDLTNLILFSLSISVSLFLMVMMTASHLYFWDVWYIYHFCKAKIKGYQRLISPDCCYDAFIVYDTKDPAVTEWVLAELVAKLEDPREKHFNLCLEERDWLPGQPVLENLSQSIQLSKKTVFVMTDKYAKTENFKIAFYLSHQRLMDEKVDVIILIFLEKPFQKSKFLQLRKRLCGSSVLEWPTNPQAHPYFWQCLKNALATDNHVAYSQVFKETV
Briefly: Agonist activity at human TLR7 in HEK-Blue hTLR7 cells harboring SEAP reporter transgene incubated for 18 hrs by quanti-blue reagent based assay. It is filed as cell-based.

We go through six compounds from ChEMBL document CHEMBL5357082, “Identification and Optimization of Small Molecule Pyrazolopyrimidine TLR7 Agonists for Applications in Immuno-oncology” (ACS Med Chem Lett, 2024).

Activity calls are given as the source filed them. The rule behind the calls is not given here.

Sequence of Cytochrome P450 2C19 (P33261 whole entry): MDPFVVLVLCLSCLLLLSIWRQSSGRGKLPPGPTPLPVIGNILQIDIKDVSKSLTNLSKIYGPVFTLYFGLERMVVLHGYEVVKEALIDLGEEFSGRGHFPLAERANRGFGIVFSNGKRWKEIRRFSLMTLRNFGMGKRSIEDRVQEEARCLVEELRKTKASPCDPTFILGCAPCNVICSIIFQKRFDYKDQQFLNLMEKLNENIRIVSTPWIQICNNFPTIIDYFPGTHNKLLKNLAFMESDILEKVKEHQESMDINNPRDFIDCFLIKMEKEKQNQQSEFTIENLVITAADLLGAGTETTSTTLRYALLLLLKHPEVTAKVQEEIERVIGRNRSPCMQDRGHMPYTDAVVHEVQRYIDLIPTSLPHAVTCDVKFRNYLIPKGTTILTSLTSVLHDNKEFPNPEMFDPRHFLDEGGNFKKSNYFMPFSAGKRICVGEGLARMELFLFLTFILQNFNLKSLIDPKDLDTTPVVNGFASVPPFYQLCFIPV
Sequence of Voltage-gated inwardly rectifying potassium channel KCNH2 (Q12809 whole entry): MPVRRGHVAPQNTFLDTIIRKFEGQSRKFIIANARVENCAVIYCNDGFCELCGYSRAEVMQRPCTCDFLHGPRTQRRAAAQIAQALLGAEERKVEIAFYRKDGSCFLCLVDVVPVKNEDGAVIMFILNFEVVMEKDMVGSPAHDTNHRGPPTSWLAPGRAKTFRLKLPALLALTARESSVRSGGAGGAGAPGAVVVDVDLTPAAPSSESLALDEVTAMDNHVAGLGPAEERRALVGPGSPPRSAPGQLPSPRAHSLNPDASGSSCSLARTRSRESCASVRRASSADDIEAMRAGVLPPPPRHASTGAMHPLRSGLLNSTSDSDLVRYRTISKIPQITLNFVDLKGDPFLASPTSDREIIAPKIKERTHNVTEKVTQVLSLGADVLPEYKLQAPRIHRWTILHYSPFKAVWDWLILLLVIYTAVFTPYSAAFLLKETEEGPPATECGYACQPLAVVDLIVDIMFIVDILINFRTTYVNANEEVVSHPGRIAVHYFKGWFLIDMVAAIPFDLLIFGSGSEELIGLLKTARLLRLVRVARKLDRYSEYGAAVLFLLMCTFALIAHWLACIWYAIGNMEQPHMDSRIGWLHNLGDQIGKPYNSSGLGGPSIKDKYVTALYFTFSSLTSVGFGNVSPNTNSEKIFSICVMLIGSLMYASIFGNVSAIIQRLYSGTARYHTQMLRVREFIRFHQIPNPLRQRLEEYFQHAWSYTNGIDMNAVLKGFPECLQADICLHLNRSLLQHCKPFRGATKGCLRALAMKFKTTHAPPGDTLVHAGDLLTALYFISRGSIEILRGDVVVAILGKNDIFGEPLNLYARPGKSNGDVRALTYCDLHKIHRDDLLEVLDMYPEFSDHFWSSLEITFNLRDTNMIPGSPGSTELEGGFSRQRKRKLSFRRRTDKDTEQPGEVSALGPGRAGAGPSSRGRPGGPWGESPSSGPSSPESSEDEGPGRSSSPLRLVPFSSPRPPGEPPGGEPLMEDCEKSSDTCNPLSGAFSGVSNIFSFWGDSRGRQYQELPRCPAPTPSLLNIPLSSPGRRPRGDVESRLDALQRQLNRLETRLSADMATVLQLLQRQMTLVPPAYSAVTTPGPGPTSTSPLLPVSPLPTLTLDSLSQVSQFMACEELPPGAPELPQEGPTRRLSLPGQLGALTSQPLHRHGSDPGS
Sequence of Cytochrome P450 2C9 (P11712 whole entry): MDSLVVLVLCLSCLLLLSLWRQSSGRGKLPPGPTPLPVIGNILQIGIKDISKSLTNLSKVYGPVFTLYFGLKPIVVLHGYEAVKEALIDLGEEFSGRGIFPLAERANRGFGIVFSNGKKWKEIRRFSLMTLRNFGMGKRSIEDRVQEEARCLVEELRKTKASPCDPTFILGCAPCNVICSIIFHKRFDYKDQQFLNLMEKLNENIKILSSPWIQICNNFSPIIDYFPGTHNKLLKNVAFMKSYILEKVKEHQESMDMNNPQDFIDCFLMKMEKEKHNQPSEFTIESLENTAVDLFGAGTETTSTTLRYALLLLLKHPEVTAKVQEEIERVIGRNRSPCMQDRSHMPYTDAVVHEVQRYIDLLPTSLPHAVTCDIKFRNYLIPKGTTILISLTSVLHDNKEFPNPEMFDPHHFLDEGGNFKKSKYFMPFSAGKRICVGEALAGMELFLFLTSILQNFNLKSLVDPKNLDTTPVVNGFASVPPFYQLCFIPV
Sequence of Cytochrome P450 2D6 (P10635 whole entry): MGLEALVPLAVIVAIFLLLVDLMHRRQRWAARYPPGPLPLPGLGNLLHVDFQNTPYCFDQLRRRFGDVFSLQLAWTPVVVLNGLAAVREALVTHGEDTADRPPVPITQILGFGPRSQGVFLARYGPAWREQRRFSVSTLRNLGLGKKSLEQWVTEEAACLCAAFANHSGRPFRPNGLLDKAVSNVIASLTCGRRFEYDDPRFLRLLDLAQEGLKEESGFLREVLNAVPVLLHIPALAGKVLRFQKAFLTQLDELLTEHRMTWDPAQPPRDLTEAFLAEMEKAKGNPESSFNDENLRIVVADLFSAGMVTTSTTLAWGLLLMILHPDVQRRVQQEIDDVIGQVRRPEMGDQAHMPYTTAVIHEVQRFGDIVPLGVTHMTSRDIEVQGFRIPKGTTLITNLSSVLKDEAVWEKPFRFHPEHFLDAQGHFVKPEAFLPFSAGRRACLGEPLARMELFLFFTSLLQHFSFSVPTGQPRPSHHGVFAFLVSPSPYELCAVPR
T2 sequence (P08684 whole entry): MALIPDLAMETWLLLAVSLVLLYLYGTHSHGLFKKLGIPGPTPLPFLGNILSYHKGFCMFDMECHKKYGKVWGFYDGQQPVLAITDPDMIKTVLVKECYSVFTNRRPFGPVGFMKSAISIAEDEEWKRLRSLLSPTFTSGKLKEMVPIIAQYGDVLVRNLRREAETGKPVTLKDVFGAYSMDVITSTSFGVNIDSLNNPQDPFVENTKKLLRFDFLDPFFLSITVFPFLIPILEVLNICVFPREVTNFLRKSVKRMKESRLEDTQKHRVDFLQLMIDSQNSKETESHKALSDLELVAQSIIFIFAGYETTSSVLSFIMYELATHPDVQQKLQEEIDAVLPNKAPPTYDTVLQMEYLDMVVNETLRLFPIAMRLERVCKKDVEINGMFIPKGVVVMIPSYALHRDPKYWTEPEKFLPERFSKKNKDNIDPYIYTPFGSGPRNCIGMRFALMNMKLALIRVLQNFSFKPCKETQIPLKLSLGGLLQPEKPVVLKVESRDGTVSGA

In the case of `CCC[C@@H](CCO)Nc1nc(N)nc2cnn(Cc3ncc(C4CCN(C5CCNCC5)CC4)cc3OC)c12`, in [1], the outcome was inactive. The IC50 in [2] was greater than 20 µM; in data set [3], greater than 20 µM; in data set [4] it was greater than 20 µM; in data set [5], greater than 20 µM; in data set [6], greater than 20 µM; in data set [8], 32.6 µM. For the same compound, the IC50 in data set [10], in data set [12] and in data set [13] was greater than 20 µM each time. Also, the IC50 at 72 h in data set [7] is greater than 25 µM. Also, the remaining at 10 min, 0.5 µM in [9] and in data set [11] was 100% in each case.
As for `CCC[C@@H](CCO)Nc1nc(N)nc2cnn(Cc3ncc(C4CC5(C4)CN(C4CCOCC4)C5)cc3OC)c12`, the concentration for a half-maximal effect (EC50) in data set [14] was found to be 0.148 µM; in data set [15], 0.37 µM. Moreover, the IC50 in data set [2] is greater than 20 µM; in data set [3], greater than 20 µM; in data set [4], greater than 20 µM; in data set [5], greater than 20 µM; in data set [6] it was greater than 20 µM; in [8], greater than 50 µM. For the same compound, the IC50 in data set [10], in data set [12] and in [13] was greater than 20 µM throughout. Also, the IC50 at 72 h in data set [7] was greater than 25 µM. Moreover, the remaining at 10 min, 0.5 µM was found to be 66% in [9] and 77% in [11].
On to `CCCCNc1nc(N)nc2c(CC)nn(Cc3ncc(C4CCNCC4)cc3OC)c12`, for which the EC50 is greater than 5 µM in data set [14] and 0.572 µM in data set [15]. The half-inhibitory concentration (IC50) is greater than 20 µM in data set [2]; greater than 20 µM in data set [3]; greater than 20 µM in data set [4]; greater than 20 µM in data set [5]; greater than 20 µM in data set [6]; greater than 50 µM in [8]. For the same compound, the half-inhibitory concentration (IC50) in data set [10], in data set [12] and in data set [13] was greater than 20 µM throughout. The IC50 at 72 h in data set [7] is greater than 25 µM. Also, the remaining at 10 min, 0.5 µM was found to be 47% in [9] and 74% in [11].
With `CCC[C@@H](CCO)Nc1nc(N)nc2cnn(Cc3ncc(C4CCN(C5CCN(C)CC5)CC4)cc3OC)c12`, the result in data set [1] was inactive. Further, the IC50 in [2] is greater than 20 µM; in data set [3], greater than 20 µM; in [4], greater than 20 µM; in data set [5] it was greater than 20 µM; in data set [6], greater than 20 µM; in [8] it was greater than 50 µM. The IC50 in data set [10], in data set [12] and in data set [13] was greater than 20 µM throughout. Besides, the IC50 at 72 h in [7] was greater than 25 µM. Moreover, the remaining at 10 min, 0.5 µM in [9] stood at 85%; in [11] it was 99%.
On to `CCC[C@@H](CCO)Nc1nc(N)nc2cnn(Cc3ncc(C4CCC5(CC4)CN(C4CCOCC4)C5)cc3OC)c12`, for which the figures for the EC50 in [14] and in data set [15] were 0.029 µM and 0.012 µM, respectively. Moreover, the IC50 in [2], in [3], in data set [4], in data set [5], in data set [6] and in data set [10] was greater than 20 µM throughout. In addition, the half-maximal inhibitory concentration (IC50) in [12] and in data set [13] was greater than 20 µM throughout. Besides, the IC50 at 72 h in data set [7] is 18 µM. Moreover, the “inhibition (INH)” value in [8] was “Not Active”. Further, the figures for the remaining at 10 min, 0.5 µM in data set [9] and in [11] were 50% and 57%, respectively.
Consider `CCCCNc1nc(N)nc2c(C3CC3)nn(Cc3ncc(C4CCNCC4)cc3OC)c12`, for which the EC50 in data set [14] is greater than 5 µM; in [15], 0.461 µM. Besides, the IC50 in [2] is greater than 20 µM; in [3], 10.1 µM; in data set [4] it was greater than 20 µM; in data set [5], greater than 20 µM; in data set [6], 17.6 µM; in data set [10], greater than 20 µM. In addition, the IC50 was greater than 20 µM in [12] and 10.1 µM in [13]. In data set [7], the IC50 at 72 h was 20 µM. Moreover, the “inhibition (INH)” value in data set [8] is recorded as “Not Active”. Besides, the remaining at 10 min, 0.5 µM in [9] is 30%; in data set [11], 97%.

The IC50 is the midpoint of a concentration-inhibition curve. Broadly, the EC50 is the concentration giving half of the maximal effect. Read a high EC50 as weaker potency.
